Laboratory results reported in patent publication US20160303069A1, “MEDICAL USE OF COMPOUND FROM GARCINIA ESCULENTA” (Hong Kong Baptist University, priority 2015, published 2016).

Key:
Eca109 cells [1] = test: matrigel transwell cell invasion assay; type: cell-based, human; conditions: 5, 10, 15, 20 μM, 24 hours
Description: (§1) Eca109 and KYSE150 are cultured in RPMI1640 medium supplemented with 10% fetal calf serum, 100 U/ml penicillin and 100 μg/ml streptomycin in a humidified atmosphere containing 5% CO2 at 37° C. 0.25% trypsin is used for digestion and passage; cells under logarithmic growth phase are used in the experiment.
Transwell chambers (8 μm pore size) used in cell migration assay are pre-incubated with matrigel for 2 hours, Eca109 (1×10^5 cells/well) are seeded onto serum-free upper chambers, lower chamber contains 10% FBS medium. Cells are treatment with GPX for 24 hours, thereafter, medium is discarded, cotton swab is used to gently remove the non invaded cells in the upper chamber. Invaded cells in the lower chamber are fixed with 4% paraformaldehyde, stained with 0.1% crystal violet and scored under a light microscope. Experimental data are expressed as mean±standard deviation, using SPSS18.0 statistical software for analysis, One-Way ANOVA for variance, comparison using Student t test, *P<0.05, **P<0.01, ***P<0.001 is considered as statistically significant difference.

Eca109 cells [2] = test: cell cycle analysis by PI flow cytometry; type: cell-based, human; conditions: 48 hours
Description: (§2) Eca109 and KYSE150 are cultured in RPMI1640 medium supplemented with 10% fetal calf serum, 100 U/ml penicillin and 100 μg/ml streptomycin in a humidified atmosphere containing 5% CO2 at 37° C. 0.25% trypsin is used for digestion and passage, cells under logarithmic growth phase are used in the experiment.
Eca109 and KYSE150 (2×10^5 cells/well) are seeded to a 6-well place and treated with GPX or SFB (20 μM/well) for 48 hours. Cells are then harvested and fixed in 70% cold ethanol and stored 4° C. overnight. The cells are incubated with PI containing RNase A for 30 mins at 37° C., and are analyzed by flow cytometry (BD Biosciences Inc., Franklin Lakes, N.J., USA).

Eca109 cells [3] = test: transwell cell migration assay; type: cell-based, human; conditions: 5, 10, 15, 20 μM, 24 hours
Description: as §1
(§3) Eca109 and KYSE150 (5×10^4 cells/well) are seeded to the upper chamber (8 μm pore size) of the transwell chambers. The upper chamber contains serum-free; the lower chamber contains 10% FBS. Cells are treated with GPX for 24 hours, medium is then removed, non-migrated cells found on the upper chamber are removed using a cotton swab. Migrated cells found on the bottom chamber are fixed with 4% paraformaldehyde, stained with 0.1% crystal violet and scored under a light microscope in five random fields as shown in FIG. 3. Experimental data are expressed as mean±standard deviation, using SPSS18.0 statistical software for analysis, One-Way ANOVA for variance, comparison using Student t test, **P<0.01, ***P<0.001 is considered as statistically significant difference.

KYSE150 cells [4] = test: transwell cell migration assay; type: cell-based, human; conditions: 5, 10, 15, 20 μM, 24 hours
Description: as §1, §3

Eca109 cells [5] = test: scratch (wound healing) migration assay; type: cell-based, human
Description: as §1
(§4) Eca109 and KYSE150 under logarithmic growth phase are seeded into 24-well plate (1×10^5 cells/well). When monolayer of cell is formed, use a sterile 100 μl pipette tip to create a scratch on the monolayer, and fresh medium containing different concentration of Griffipavixanthone (GPX) or Sorafenib (SFB) (20 μM/well) are added. Cells are observed at 12 hours and 36 hours after scratch and imaged under IX83 microscope (Olympus, Tokyo, Japan).

KYSE150 cells [6] = test: scratch (wound healing) migration assay; type: cell-based, human
Description: as §1, §4

KYSE150 cells [7] = test: cell cycle analysis by PI flow cytometry; type: cell-based, human; conditions: 48 hours
Description: as §2
[…] Cells are then harvested and fixed in 70% cold ethanol and stored 4° C. overnight. The cells are incubated with PI containing RNase A for 30 mins at 37° C., and are analyzed by flow cytometry (BD Biosciences Inc., Franklin Lakes, N.J., USA).

Eca109 cells [8] = test: colony formation / cell proliferation assay; type: cell-based, human; conditions: 5, 10, 15, 20 μM, 48 hours treatment, 7 days incubation
Description: as §1
(§5) Eca109 (500 cells/well) and KYSE150 (250 cells/well) are seeded in a 6-well plate. […] On the 7th day, cells are fixed with 4% paraformaldehyde, stained with 0.1% crystal violet and imaged under a light microscope.

KYSE150 cells [9] = test: colony formation / cell proliferation assay; type: cell-based, human; conditions: 5, 10, 15, 20 μM, 48 hours treatment, 7 days incubation
Description: as §1, §5

KYSE150 cells [10] = test: matrigel transwell cell invasion assay; type: cell-based, human; conditions: 5, 10, 15, 20 μM, 24 hours
KYSE150 lung metastasis = test: lung metastasis animal model (KYSE150 cells injected intravenously); type: in vivo; conditions: nude mice, 20 mg/kg every another day for 35 days; for number of lung tumor nodules / size / area of lung nodules (metastatic foci): HE staining, 20 mg/kg
Description: Eca109 and KYSE150 are cultured in RPMI1640 medium supplemented with 10% fetal calf serum, 100 U/ml penicillin and 100 μg/ml streptomycin in a humidified incubator containing 5% CO2 at 37° C. 0.25% trypsin is used for digestion and passage; cells under logarithmic growth phase are used in the experiment.
KYSE150 cells (1×10^6 cells/mouse) are intravenously injected into 6-week old male nude mice (Experimental Animal Center of the Chinese Academy of Science, Shanghai, China). The 6-week old male nude mice weight 20 g each. After injection of the cancer cells, the mice are divided into 3 groups randomly (n=8 in each group). DMSO, GPX (20 mg/kg) or 5-FU (20 mg/kg) are administered to the mice intraperitoneally every another day for 35 days. Body weight is measured every 2 days. 35 days later, lungs are removed and weighted. Using Bouin's solution, lungs are fixed, sliced and stained with HE to count number of lung nodules.

esophageal cancer = test: apoptosis in vitro; type: cell-based
[11] = different concentrations of GPX, observed 12 h and 36 h after scratch
[12] = SFB 20 μM/well, positive control

For `CC1=C[C@H]2c3c(c(O)c(O)c4oc5cc(O)cc(O)c5c(=O)c34)[C@H](c3cc(O)c(O)c4oc5cc(O)cc(O)c5c(=O)c34)[C@H]2C(C)(C)C1` [GPX, Griffipavixanthone], the “inhibition of cell invasion” value (Eca109 cells [1]) was “inhibits cell invasion of Eca109 and KYSE150 at 5, 10, 15, 20 μM in a dose dependent manner”, the “G2/M cell cycle arrest” value (Eca109 cells [2]; 5, 10, 15, 20 μM) was “induces G2/M cell cycle arrest in Eca109 and KYSE150 at 5, 10, 15, 20 μM in a dose dependent manner” and the “inhibition of cell migration (transwell)” value (Eca109 cells [3]) was “inhibits cell migration of Eca109 and KYSE150 at 5, 10, 15, 20 μM in a dose dependent manner”. The “inhibition of cell migration (transwell)” value (KYSE150 cells [4]) was “inhibits cell migration of Eca109 and KYSE150 at 5, 10, 15, 20 μM in a dose dependent manner”, the “inhibition of cell scratch migration in wound healing” value (from here on “inhibition of cell scratch migration”) (Eca109 cells [5]; [11]) was “inhibits cell migration of Eca109 and KYSE150 in wound healing in a dose dependent manner” and the “inhibition of cell scratch migration” value (KYSE150 cells [6]; [11]) was “inhibits cell migration of Eca109 and KYSE150 in wound healing in a dose dependent manner”. For the same compound, the “G2/M cell cycle arrest” value (KYSE150 cells [7]; 5, 10, 15, 20 μM) was “induces G2/M cell cycle arrest in Eca109 and KYSE150 at 5, 10, 15, 20 μM in a dose dependent manner”, the “inhibition of cell proliferation (colony formation)” value (Eca109 cells [8]) was “inhibits cell proliferation of Eca109 and KYSE150 at 5, 10, 15, 20 μM in a dose dependent manner” and the “inhibition of cell proliferation (colony formation)” value (KYSE150 cells [9]) was “inhibits cell proliferation of Eca109 and KYSE150 at 5, 10, 15, 20 μM in a dose dependent manner”. The “inhibition of cell invasion” value (KYSE150 cells [10]) was “inhibits cell invasion of Eca109 and KYSE150 at 5, 10, 15, 20 μM in a dose dependent manner”, the “inhibition of lung metastasis of KYSE150” value (KYSE150 lung metastasis) was “significantly inhibits lung metastasis of KYSE150” and the lung weight (KYSE150 lung metastasis) was “reduced lung weight”. The “number of lung tumor nodules” value (KYSE150 lung metastasis) was “reduced number of lung tumor nodules”, the “size / area of lung nodules (metastatic foci)” value (KYSE150 lung metastasis) was “metastatic foci are sparse and smaller” and the “number of lung tumor nodules” value (KYSE150 lung metastasis; listed as Griffipavixanthone) was “reduces lung nodules”. For the same compound, the “size / area of lung nodules (metastatic foci)” value (KYSE150 lung metastasis; listed as Griffipavixanthone) was “reduces lung nodules and area of pulmonary nodules in lung tissues” and the promotion of apoptosis (esophageal cancer) was “without promoting apoptosis in vitro”.

For `CNC(=O)c1cc(Oc2ccc(NC(=O)Nc3ccc(Cl)c(C(F)(F)F)c3)cc2)ccn1` [SFB, Sorafenib, reference compound], the “G2/M cell cycle arrest” value (Eca109 cells [2]; [12]) was “the results are in line with SFB”, the “inhibition of cell scratch migration” value (Eca109 cells [5]; [12]) was “significantly inhibit cell scratch migration” and the “inhibition of cell scratch migration” value (KYSE150 cells [6]; [12]) was “significantly inhibit cell scratch migration”. The “G2/M cell cycle arrest” value (KYSE150 cells [7]; [12]) was “the results are in line with SFB”.
